# Assay results as given in patent US8987216B2, “Polysulfated glycosides and salts thereof” (Teva Hungary Pharmaceutical Marketing Private Limited …, priority 2004, dated 2015).
# Where a name gives a salt, the structure may show the parent alone. Read-outs that look alike come from different tables or passages of the source.
# What was measured:
# IP-3 receptor = target: T1, IP-3 receptor (Rattus norvegicus, UniProt P29994); assay: IP-3 receptor antagonistic effect: inhibition of IP3 binding to its receptor in rat cerebellum membrane preparations
# T1 construct: determined using rat cerebellum membrane preparations; from tissue; host or cells: rat cerebellum (microsomal membrane preparation)
# Description: Glycosides of the present invention, depending on their chemical structure, inhibit the binding of inositol-1,4,5-trisphosphate (IP3) to its receptor in microsomal membrane preparations. As IP3 is a messenger molecule playing distinguished role in the activation of different cells, interfering with this function can explain the anti-asthmatic effect of these polysulfated glycosides.
# The IP3 antagonist effect of the polysulfated glycosides were determined using rat cerebellum membrane preparations according to Worley et al. (JBC 262, 12132, 1987).
# BN rats [1] = assay: Effect on the extent of perivascular oedema developed in asthmatic lung tissue; type: in vivo, Brown Norway (BN) rats; details: Control 55 ± 6, Challenge 209 ± 12
# Description: Sensitized BN rats were treated intratracheally with varying (0.01-1.0 mg/kg) dose of compound described in example 4, two hours before antigenic challenge, using a similar protocol described in Model 1. Lungs were collected […] and were fixed in 8% phosphate buffered formaldehyde. Samples were then processed for histochemistry routinely. 5 μm thick sections were stained with periodic-acid-Schiff (PAS) reagents and were counterstained with haematoxylineosine. On the 5 μm sections, the area of the connective tissue around the vasculare was determined and expressed as a ratio of the area of the corresponding blood vessel itself.
# BN-rats = assay: Effect of locally (intratracheally) administered polysulfated glycosides on airways' hyperresponsiveness ex vivo (tracheal contraction to acetylcholine after antigen challenge); type: in vivo, Brown Norway (BN) rats; details: Control 100 ± 0, Placebo 334 ± 68
# Description: Brown Norway (BN) rats were actively sensitized to ovalbumin (OA) by a subcutaneous injection of 0.5 ml of OA/A1(OH)3 gel mixture (2 mg OA+10 g A1(OH)3/100 ml saline) on day 1 with subsequent subcutaneous injections (10 mg OA+10 g A1(OH)3/100 ml saline) given on days 14 and 21. On day 28, animals received the compound described in example 4 intratracheally (0.01; 0.1 or 1.0 mg/kg dose) 2 hours before antigen challenge. Antigen challenge was performed by inhalation of nebulised ovalbumin (1% antigen solution administered in a TSE inhalation system for 1 hour). Animals were sacrificed 48 hours post antigen challenge wherein the tracheas were removed to an organ bath. Dissected tracheas were allowed to equilibrate for 30 minutes before measuring tracheal spasmogenic response curves to acetylcholine (Ach).
# As shown in Table 1 ovalbumin challenge of sensitized animals in this model caused a significant tracheal hyper-reactivity to acetylcholine, when the response to the spasmogenic agent was determined 48 h after antigen challenge.
# BN rats [2] = assay: Effect on the allergen stimulated mucus production of airways epithelial cells (PAS(+) cell count in lung sections); type: in vivo, Brown Norway (BN) rats; details: lungs 48 hours after challenge, Control 2.2 ± 0.9, Challenge 15.8 ± 2.8
# Description: Sensitized BN rats were treated intratracheally with varying (0.01-1.0 mg/kg) dose of compound described in example 4, two hours before antigenic challenge, using a similar protocol described in Model 1. Lungs were collected 48 hours after challenge and were fixed in 8% phosphate buffered formaldehyde. Samples were then processed for histochemistry routinely. 5 μm thick sections were stained with periodic-acid-Schiff (PAS) reagents and were counterstained with haematoxylineosine. On the sections each epithelial cells of the airways were counted in the whole preparation at a magnification of 400×. The number of PAS(+) [mucus producing] epithelial cells was expressed as the ratio of the total number of epithelial cells.
# As it is shown in Table 2, allergen challenge stimulates the mucus production of airways epithelial cells (control vs. challenge).
# [3] = 0.01 mg/kg intratracheally two hours before antigenic challenge
# [4] = 0.1 mg/kg intratracheally two hours before antigenic challenge
# T1 sequence (P29994 whole entry): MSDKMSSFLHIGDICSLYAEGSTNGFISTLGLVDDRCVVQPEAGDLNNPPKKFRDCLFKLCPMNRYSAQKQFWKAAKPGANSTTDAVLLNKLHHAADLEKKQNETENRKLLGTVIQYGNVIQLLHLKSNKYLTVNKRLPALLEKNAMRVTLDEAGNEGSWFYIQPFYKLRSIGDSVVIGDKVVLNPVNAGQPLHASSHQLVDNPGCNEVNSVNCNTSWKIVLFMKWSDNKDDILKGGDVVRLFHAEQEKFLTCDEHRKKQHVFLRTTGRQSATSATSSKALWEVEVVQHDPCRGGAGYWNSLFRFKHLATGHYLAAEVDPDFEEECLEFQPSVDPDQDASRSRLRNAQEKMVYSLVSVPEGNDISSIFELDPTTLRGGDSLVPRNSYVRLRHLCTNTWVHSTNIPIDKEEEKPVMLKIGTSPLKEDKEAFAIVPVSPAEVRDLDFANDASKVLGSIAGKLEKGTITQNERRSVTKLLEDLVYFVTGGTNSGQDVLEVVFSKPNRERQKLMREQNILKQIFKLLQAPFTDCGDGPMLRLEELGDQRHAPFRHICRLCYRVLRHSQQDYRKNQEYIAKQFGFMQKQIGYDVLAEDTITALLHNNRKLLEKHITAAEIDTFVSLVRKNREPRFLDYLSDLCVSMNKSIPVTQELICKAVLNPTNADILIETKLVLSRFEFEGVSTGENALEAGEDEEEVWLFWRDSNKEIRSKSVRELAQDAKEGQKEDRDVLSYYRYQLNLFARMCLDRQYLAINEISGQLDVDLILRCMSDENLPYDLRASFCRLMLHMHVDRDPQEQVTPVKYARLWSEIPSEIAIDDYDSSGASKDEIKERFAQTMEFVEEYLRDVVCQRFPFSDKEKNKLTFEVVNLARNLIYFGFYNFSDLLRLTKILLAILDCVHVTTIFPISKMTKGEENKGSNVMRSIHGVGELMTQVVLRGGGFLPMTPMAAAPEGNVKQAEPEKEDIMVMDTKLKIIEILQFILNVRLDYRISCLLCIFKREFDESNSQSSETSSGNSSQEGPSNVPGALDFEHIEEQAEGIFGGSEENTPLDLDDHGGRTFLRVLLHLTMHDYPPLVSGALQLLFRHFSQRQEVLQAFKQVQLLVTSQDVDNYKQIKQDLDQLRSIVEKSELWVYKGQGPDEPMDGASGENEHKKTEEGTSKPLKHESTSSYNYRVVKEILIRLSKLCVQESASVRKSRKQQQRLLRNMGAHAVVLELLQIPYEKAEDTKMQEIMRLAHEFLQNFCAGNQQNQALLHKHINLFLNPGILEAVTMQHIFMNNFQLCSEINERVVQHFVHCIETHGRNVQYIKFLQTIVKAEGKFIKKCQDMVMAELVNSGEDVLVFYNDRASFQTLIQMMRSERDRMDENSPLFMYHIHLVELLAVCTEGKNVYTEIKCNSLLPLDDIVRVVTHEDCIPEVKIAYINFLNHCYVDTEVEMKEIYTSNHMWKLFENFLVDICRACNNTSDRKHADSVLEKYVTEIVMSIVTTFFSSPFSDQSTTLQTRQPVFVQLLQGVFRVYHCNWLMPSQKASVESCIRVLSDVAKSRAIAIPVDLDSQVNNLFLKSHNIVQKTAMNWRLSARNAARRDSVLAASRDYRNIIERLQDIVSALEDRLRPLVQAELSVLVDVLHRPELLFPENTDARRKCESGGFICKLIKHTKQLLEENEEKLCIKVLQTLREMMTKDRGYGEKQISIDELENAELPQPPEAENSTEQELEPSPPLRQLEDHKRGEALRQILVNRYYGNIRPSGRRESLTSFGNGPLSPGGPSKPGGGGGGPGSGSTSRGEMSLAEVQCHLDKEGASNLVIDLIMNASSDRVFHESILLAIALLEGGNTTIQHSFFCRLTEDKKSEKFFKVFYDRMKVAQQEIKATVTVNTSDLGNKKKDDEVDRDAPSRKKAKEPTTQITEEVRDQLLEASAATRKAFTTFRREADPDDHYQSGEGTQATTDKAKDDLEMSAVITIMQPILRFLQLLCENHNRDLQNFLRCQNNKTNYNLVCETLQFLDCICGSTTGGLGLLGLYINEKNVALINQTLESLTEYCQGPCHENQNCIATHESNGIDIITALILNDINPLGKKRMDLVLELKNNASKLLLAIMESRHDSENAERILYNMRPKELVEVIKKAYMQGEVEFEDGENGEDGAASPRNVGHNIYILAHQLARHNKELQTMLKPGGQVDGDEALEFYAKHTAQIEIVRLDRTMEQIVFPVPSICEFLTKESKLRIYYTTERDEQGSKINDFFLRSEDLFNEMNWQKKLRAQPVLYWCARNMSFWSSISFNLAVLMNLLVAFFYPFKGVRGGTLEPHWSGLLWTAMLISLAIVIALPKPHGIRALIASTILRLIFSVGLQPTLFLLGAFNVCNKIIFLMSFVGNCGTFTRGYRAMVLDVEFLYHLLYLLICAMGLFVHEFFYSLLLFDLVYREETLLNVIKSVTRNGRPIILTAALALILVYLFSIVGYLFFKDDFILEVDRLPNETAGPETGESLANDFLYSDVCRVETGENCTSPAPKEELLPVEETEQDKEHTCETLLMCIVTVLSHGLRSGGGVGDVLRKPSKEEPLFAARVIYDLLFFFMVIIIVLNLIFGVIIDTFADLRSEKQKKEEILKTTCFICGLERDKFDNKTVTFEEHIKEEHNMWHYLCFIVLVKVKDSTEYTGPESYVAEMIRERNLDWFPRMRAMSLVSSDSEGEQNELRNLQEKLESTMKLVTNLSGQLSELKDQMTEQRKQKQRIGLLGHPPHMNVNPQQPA
compound,measurement,setting,value
"O=S(=O)(O)OC[C@H](OS(=O)(=O)O)[C@@H](O[C@@H]1O[C@H](COS(=O)(=O)O)[C@@H](OS(=O)(=O)O)[C@H](OS(=O)(=O)O)[C@H]1OS(=O)(=O)O)[C@H](OS(=O)(=O)O)[C@@H](COS(=O)(=O)O)OS(=O)(=O)O [Example 4, 1,2,4,5,6-penta-O-sulfato-3-O-(2,3,4,6-tetra-β-sulfato-β-D-glucopyranosyl)-D-glucitol nona potassium salt]",IC50,IP-3 receptor; read-out: Average IC50,163 nM
same,IC50,IP-3 receptor; read-out: IC 50 (μg/ml) Average ± SEM (n) (converted),216 nM
same,Oedema: area of oedema relative to area of vasculature (average ± SEM),BN rats [1]; [3],113 ± 7
same,Oedema: area of oedema relative to area of vasculature (average ± SEM),BN rats [1]; [4],106 ± 8
same,MAX: Contraction at maximal Ach concentration relative to control (mean ± SEM),BN-rats; 0.01 mg/kg intratracheally 2 hours before ovalbumin challenge,134 ± 26
same,MAX: Contraction at maximal Ach concentration relative to control (mean ± SEM),BN-rats; 1.0 mg/kg intratracheally 2 hours before ovalbumin challenge,116 ± 37
same,number of PAS(+) cells as percent of total number of cells (average ± SEM),BN rats [2]; [3],15.0 ± 2.7%
same,number of PAS(+) cells as percent of total number of cells (average ± SEM),BN rats [2]; [4],6.3 ± 1.5%
"O=S(=O)(O)OC[C@H](OS(=O)(=O)O)[C@@H](OS(=O)(=O)O)[C@H](O[C@@H]1O[C@H](COS(=O)(=O)O)[C@H](OS(=O)(=O)O)[C@H](OS(=O)(=O)O)[C@H]1OS(=O)(=O)O)[C@@H](COS(=O)(=O)O)OS(=O)(=O)O (as salt: potassium) [Example 7, 1,2,3,5,6-penta-O-sulfato-4-O-(2,3,4,6-tetra-O-sulfato-β-D-galactopyranosyl)-D-glucitol nona potassium salt]",melting point,,> 220 °C
